Key:
spleen T cells [1] = test: T cell proliferation inhibition (CFSE, FACS), CD3/CD28-activated spleen T cells; format: cell-based, C57BL/6 mice; conditions: Mus musculus, T-cell, 72 h, Table 2, 3 days, relative to CD3/CD28+DMSO, read-out: Proliferation inhibition rate (%)
Method in brief: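 Proliferation inhibition is expressed as a percentage versus CD3/CD28-stimulated DMSO controls, from CFSE dye dilution measured by FACS after 3 days at 37 °C. Compounds at 10, 30 and 50 μM (triplicate) on anti-CD3/CD28-activated (0.5 μg/mL each) C57BL/6 mouse spleen T cells, 2×10^5 per well.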

[2] = system: T lymphocyte cell line Jurkat E6-1; test: Cytotoxicity experiment (CCK-8, relative cell survival); format: cell-based; conditions: 24 hours, untreated cells = 100%
Method in brief: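 Relative survival versus untreated cells (set to 100%) from CCK-8 absorbance at 450 nm after 2 h dye incubation. Cells had been treated with graded compound concentrations for 24 h at 37 °C in 5% CO2, cultured in RPMI-1640 plus 10% FBS.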

[3] = system: psoriasis mouse animal model; test: Psoriasis mouse animal model (imiquimod-induced); format: in vivo, BALB/c mice; conditions: 40 mg/kg intraperitoneally twice a day
From the text: To confirm the therapeutic effect of compounds according to the present invention on psoriasis, a psoriasis animal model was established to evaluate the alleviation of skin lesions and changes in immune cell profiles by administering Compound 69 or Compound 83 via injection.
To establish a psoriasis mouse animal model, BALB/c mice (7 weeks old, 20 g, female) were purchased from Hana Biotech Co. and allowed to acclimate to the housing environment for one week. Afterward, the fur on the dorsal area of the mice was initially shaved using a shaver, followed by complete removal with depilatory cream (Nicrin Cream, comprising thioglycolic acid 80%, manufactured by ILDONG Pharmaceutical CO., LTD). The mice were then housed for 24 hours to confirm any wounds on their backs.
Subsequently, in order to verify the preventive and therapeutic effects of compounds according to the present invention on psoriasis, five experimental groups were established as shown in FIG. 7 and Table 5. From the second to the fifth group, Aldara® cream was applied once daily for two weeks (14 days, total of 14 applications) at a dose of 80 mg (imiquimod, 4 mg) per mouse to induce psoriasis. Furthermore, to compare the preventive and therapeutic effects of compounds according to the present invention (Compound 69 and Compound 83) on psoriasis, 40 mg/kg of the compound per mouse was dissolved in DMSO corresponding to 10% of the dosing volume, and then diluted in a mixture of Cremophor EL-PEG 400-distilled water to achieve a final ratio of DMSO: Cremophor EL:PEG 400:distilled water to 1:1:4:4 (v/v/v/v). Subsequently, the respective injections were intraperitoneally administered at a dose of 100 μL per mouse, twice a day with a 12-hour interval. For the Vehicle control group, injections excluding the drug but comprising the vehicle solution (DMSO: Cremophor EL:PEG 400:distilled water=1:1:4:4 (v/v/v/v)) were administered at a dose of 100 μL per mouse, twice a day with a 12-hour interval.
To assess the impact of each compound on immune cells in vivo, the spleens of mice treated with each compound were harvested, and cells were extracted, and cells were suspended in MACS buffer (2 mM EDTA, 0.5% FBS, 137 mM NaCl, 2.7 mM KCl, 10 mM Na2HPO4, 1.8 mM KH2PO4, Miltenyi Biotech.). For flow cytometry analysis, each mouse's splenocytes were aliquoted at 5×10^5 cells per FACS tube (5 mL round tube, Falcon). To prevent non-specific antibody binding, each tube was treated with 1 μg/mL of anti-mouse CD16/CD32 (InVivoMAb) for 30 minutes, followed by centrifugation at 13,000 rpm for 5 minutes, and resuspended in 100 μL of MACS buffer. Subsequent experiments were conducted depending on the type of immune cells to be examined.
For B cells, each FACS tube was stained with 1 μg/mL of FITC-conjugated anti-B220 antibody (eBioscience™) at 4° C. for 30 minutes, followed by washing with 2 mL of MACS buffer. Subsequently, each tube was centrifuged at 15,000 rpm for 5 minutes, the supernatant was removed, and the precipitated cells were fixed using 200 μL of 4% paraformaldehyde solution.
For T cells, each FACS tube was stained with 1 μg/mL of PerCP-Cy5.5-conjugated anti-CD3 antibody (Biolegend), FITC-conjugated anti-CD8 antibody (eBioscience™) and Cy7-conjugated anti-CD4 antibody (eBioscience™) at 4° C. for 30 minutes, followed by washing with 2 mL of MACS buffer. Subsequently, each tube was centrifuged at 15,000 rpm for 5 minutes, the supernatant was removed, and the precipitated cells were fixed using 200 μL of 4% paraformaldehyde solution.
For macrophages, each FACS tube was stained with 1 μg/mL of FITC-conjugated anti-CD11b antibody (eBioscience™) at 4° C. for 30 minutes, followed by washing with 2 mL of MACS buffer. Subsequently, each tube was centrifuged at 15,000 rpm for 5 minutes, the supernatant was removed, and the precipitated cells were fixed using 200 μL of 4% paraformaldehyde solution.

spleen T cells [4] = test: Cytokine secretion by anti-CD3/CD28-activated T cells (Cytometric Bead Array); format: cell-based, C57BL/6 mice; conditions: 30 μM; for secretion of IL-2: 24 hours after treatment, FIG. 3; for secretion of IFN-γ / secretion of IL-17A / secretion of TNF-α: 72 hours after treatment
Experimental: To confirm the effect of compounds of the present invention on the secretion of cytokines by T cells, the following experiment was conducted.
Spleens were harvested and minced from C57BL/6 mice at 7 weeks of age, and single cells were isolated using a strainer (40 μm pore size, SPL). Red blood cells were removed using ACK (Ammonium-Chloride-Potassium) lysis buffer to isolate only leukocytes. These were then reacted with 10 v/v % CD90.2 microbeads (130-121-278, Miltenyi Biotech.) at 4° C. for 20 minutes, resulting in the isolation of spleen T cells from magnetic-based purification. The T cells were cultured in a 96-well plate at an amount of 2×10^5 cells/well. For T cell activation, each well was treated with anti-CD3/CD28 antibodies at a concentration of 1 μg/mL. Subsequently, Vehicle (DMSO) and compounds (Compound 14, Compound 19, Compound 26, Compound 31, Compound 35, Compound 40, Compound 41, Compound 56, Compound 69, Compound 75) at a concentration of 30 μM were treated in each well, and it was cultured at 37° C. in a 5% CO2 incubator. After 24 and 72 hours, the T cell culture medium was taken, and centrifugation was performed at 13,000 rpm for 10 minutes to obtain the supernatant.
To measure the concentration of cytokines present in the T cell culture medium, Mouse Th1/Th2/Th17 Cytokine CBA Kit (Cytometric Bead Array kit) 560485 from BD Science was utilized for flow cytometry analysis. The secretion levels of IL-2 at 24 hours after each drug treatment, and IFN-γ, TNF-α, and IL-17A at 72 hours were measured after each drug treatment.

[5] = flow cytometry, versus psoriasis groups, FIG. 10

Compound: O=C(NCCCCCCCCCCCCO)c1ccccc1Br [Compound 83]
- inhibition at 10 µM (spleen T cells [1]): 0%
- inhibition at 30 µM (spleen T cells [1]): 63%
- inhibition at 50 µM (spleen T cells [1]): 100%
- Relative cell survival rate (%) ([2]; 10 μM): 102%
- Relative cell survival rate (%) ([2]; 20 μM): 105%
- Relative cell survival rate (%) ([2]; 30 μM): 87%
- Relative cell survival rate (%) ([2]; 50 μM): 77%
- skin lesions (erythema, thickness, exfoliation of back skin) ([3]; 14 days, FIG. 8): either minimally present or hardly observed
- hyperkeratosis, parakeratosis, irregular acanthosis, infiltration of inflammatory cells (H&E staining) ([3]; 14 days, FIG. 9): either minimally present or hardly observed
- proportion of B cells in the spleen [3, 5]: increase
- proportion of CD11b granulocytes in the spleen [3, 5]: decreased
- proportion of T cells in the spleen [3, 5]: increase

Compound: CC(C)=CCC/C(C)=C/CNC(=O)c1cccnc1N [Compound 75]
- inhibition at 10 µM (spleen T cells [1]): 95%
- inhibition at 30 µM (spleen T cells [1]): 98%
- inhibition at 50 µM (spleen T cells [1]): 98%
- Relative cell survival rate (%) ([2]; 10 μM): 97%
- Relative cell survival rate (%) ([2]; 20 μM): 95%
- Relative cell survival rate (%) ([2]; 30 μM): 86%
- Relative cell survival rate (%) ([2]; 50 μM): 85%
- secretion of IL-2 (spleen T cells [4]): significant decrease
- secretion of IFN-γ (spleen T cells [4]): significant decrease
- secretion of IL-17A (spleen T cells [4]): significant decrease
- secretion of TNF-α (spleen T cells [4]): significant decrease

Compound: CCCCCCCCCCCCNC(=O)c1cccnc1 [Compound 19]
- inhibition at 10 µM (spleen T cells [1]): 19%
- inhibition at 30 µM (spleen T cells [1]): 99%
- inhibition at 50 µM (spleen T cells [1]): 100%
- Relative cell survival rate (%) ([2]; 10 μM): 94%
- Relative cell survival rate (%) ([2]; 20 μM): 87%
- Relative cell survival rate (%) ([2]; 30 μM): 82%
- Relative cell survival rate (%) ([2]; 50 μM): 83%
- secretion of IL-2 (spleen T cells [4]): significant decrease
- secretion of IFN-γ (spleen T cells [4]): significant decrease
- secretion of IL-17A (spleen T cells [4]): significant decrease
- secretion of TNF-α (spleen T cells [4]): significant decrease

— patent US20250296909A1, “NOVEL BENZENE DERIVATIVE AND IMMUNOSUPPRESSION-RELATED USE THEREOF” (PROVIBIO CO., LTD., priority 2021, published 2025)
